Experimental findings from PubChem BioAssay (NCI) are described below.

Test systems include UO-31 renal; KM12 colon; U251 CNS; HOP-62 NSCLC; CCRF-CEM leukemia; TK-10 renal; SN12C renal; NCI-H522 lung; SNB-19 CNS; NCI-H23 lung.
Experiment in all cases: growth of human tumour cells (NCI), 48 h

The structures appear in SMILES notation. Where “and” joins values, the source holds several entries; their conditions need not be identical. Identical values can stand only once.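 Where inhibition never reached the appropriate level, the endpoint shown equals the highest concentration tested. Otherwise, values were interpolated linearly from a five-concentration, 48-hour dose response in 96-well plates. Here, GI50 denotes the concentration required for 50% inhibition of growth. TGI marks complete inhibition of growth.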

Regarding `C=C1C(=O)O[C@H]2[C@H]1CC/C(Cn1cc(Cn3ccc4ccccc43)nn1)=C\CC[C@@]1(C)O[C@@H]21`, the GI50 in the test on UO-31 renal was 1.26 µM; with KM12 colon, 4.21 µM; in the test on U251 CNS, 3.42 µM; with HOP-62 NSCLC, 6.96 µM; in the test with CCRF-CEM leukemia, 0.298 µM; in the test with TK-10 renal, 1.65 µM. In addition, the GI50 is 1.65 µM with SN12C renal, 1.27 µM with NCI-H522 lung, 3.88 µM in the test with SNB-19 CNS and 2.5 µM in the test on NCI-H23 lung. Also, the TGI with UO-31 renal worked out at 2.53 µM; in the test on KM12 colon, 15.2 µM; in the test with U251 CNS, 12.1 µM; in the test on HOP-62 NSCLC, 20.1 µM; with CCRF-CEM leukemia, 1.73 µM; with TK-10 renal it was 3.05 µM. Besides, the TGI was 3.46 µM in the test with SN12C renal, 2.69 µM with NCI-H522 lung, 15.7 µM with SNB-19 CNS and 6.49 µM in the test on NCI-H23 lung.

Take `Cc1cc(C)c(O)c(Cc2cccc(Cc3cc(C)cc(C)c3O)c2O)c1`: the TGI in the test with UO-31 renal, in the test with KM12 colon, with U251 CNS, in the test on HOP-62 NSCLC, in the test on CCRF-CEM leukemia and with TK-10 renal was over 100 µM in each case. Further, the TGI in the test on SN12C renal, with NCI-H522 lung, with SNB-19 CNS and in the test with NCI-H23 lung was over 100 µM in each case.

Regarding `Cc1ccc([N+](=O)[O-])cc1NC(=O)C(=O)Cc1occc(=O)c1O`, the TGI with UO-31 renal, in the test on KM12 colon, in the test with U251 CNS, in the test with HOP-62 NSCLC, with CCRF-CEM leukemia and with TK-10 renal was over 100 µM each time. Moreover, the TGI in the test with SN12C renal, in the test on NCI-H522 lung and in the test with SNB-19 CNS was over 100 µM in each case.

As for `Nc1ncnc2c1nc(-c1ccccc1)n2C1OC(CO)C(O)C1O` (configuration not stated), the TGI in the test with UO-31 renal, with KM12 colon, with U251 CNS, in the test on HOP-62 NSCLC, in the test on TK-10 renal and with SN12C renal was over 100 µM each time. The TGI with NCI-H522 lung, in the test on SNB-19 CNS and in the test on NCI-H23 lung was over 100 µM in each case.

Take `Cc1ccc(S(=O)(=O)/N=c2\ssc(Nc3ccccc3)c2Cl)cc1`: the GI50 in the test with UO-31 renal was 21.3 µM; with KM12 colon, 8.26 µM; in the test on U251 CNS it was 8.92 µM; with HOP-62 NSCLC, 23.6 µM; in the test with TK-10 renal it was 8.21 µM; in the test with SN12C renal, 8.99 µM. Besides, the GI50 in the test with NCI-H522 lung is 19.8 µM; with SNB-19 CNS, 12.8 µM; with NCI-H23 lung it was 11 µM. Besides, the TGI with UO-31 renal was over 50 µM; with KM12 colon, 20.4 µM; with U251 CNS, 21.3 µM; in the test on HOP-62 NSCLC it was over 50 µM; with TK-10 renal it was 22.8 µM; in the test on SN12C renal it was 25.6 µM. Also, the values for the TGI with NCI-H522 lung, in the test on SNB-19 CNS and with NCI-H23 lung were over 50 µM, over 50 µM and 27.1 µM, respectively.

As for `O=C(/C=C\c1cccc2ccccc12)c1cccs1`, the TGI was 25.6 µM with UO-31 renal; 17.6 µM with KM12 colon; 16.5 µM in the test on U251 CNS; 41.5 µM in the test with HOP-62 NSCLC; 7.83 µM with CCRF-CEM leukemia; 33.2 µM in the test on TK-10 renal. Moreover, the TGI is 31.5 µM with SN12C renal, 8.49 µM with NCI-H522 lung, 25.3 µM in the test on SNB-19 CNS and 34.8 µM in the test on NCI-H23 lung.

For `CC(=O)O[C@H]1C(=O)O[C@@H]2C[C@H]3C(C)=CC(=O)[C@@H](O)[C@]3(C)[C@H]3[C@@]4(O)OC[C@]32[C@@H]1[C@@H](C)[C@H]4O`, the GI50 in the test on UO-31 renal was 0.0958 µM; with KM12 colon, 0.0178 µM; with U251 CNS, under 0.01 µM; with HOP-62 NSCLC it was under 0.0122 µM; in the test on CCRF-CEM leukemia, 0.015 µM; in the test with SN12C renal, 0.0304 µM. Further, the GI50 was under 0.0116 µM in the test on NCI-H522 lung; 0.0138 µM and 0.0382 µM with SNB-19 CNS; under 0.0141 µM in the test with NCI-H23 lung. For the same compound, the TGI in the test with UO-31 renal is 1.21 µM and 4.45 µM; with KM12 colon, 0.317 µM and 0.306 µM; with U251 CNS it was 0.049 µM and 0.0797 µM; in the test on HOP-62 NSCLC it was 0.07 µM and 0.314 µM; in the test on CCRF-CEM leukemia, 0.073 µM and 0.572 µM; with NCI-H522 lung it was 0.226 µM and 0.0582 µM. The TGI in the test with SNB-19 CNS is 0.0995 µM and 0.135 µM; with NCI-H23 lung, 0.0904 µM and 0.453 µM.

On to `NC(=O)N/N=C(\C(=O)C(=O)Nc1ccc(Cl)c(C(F)(F)F)c1)c1nc2ccc(C(=O)c3ccccc3)cc2[nH]c1=O`, for which the TGI in the test with UO-31 renal, in the test on KM12 colon, in the test on U251 CNS, in the test on CCRF-CEM leukemia, in the test with TK-10 renal and in the test with SN12C renal was over 100 µM throughout. Besides, the TGI with NCI-H522 lung, in the test on SNB-19 CNS and in the test with NCI-H23 lung was over 100 µM throughout.

Consider `COc1cc(/C=C2\[C@H]3c4c(c(OC)c(C)c(OC)c4OC)C[C@@H](C(=O)N2Cc2ccccc2)N3C(=O)OC(C)C)c(OC)c(C)c1OC`, for which the TGI with UO-31 renal, with KM12 colon, with U251 CNS, with HOP-62 NSCLC, in the test on CCRF-CEM leukemia and in the test on TK-10 renal was over 100 µM in each case. Moreover, the TGI with SN12C renal, in the test with NCI-H522 lung and with NCI-H23 lung was over 100 µM each time.

For `COc1cc2nc(Sc3c([N+](=O)[O-])ncn3C)[nH]c2cc1OC`, the TGI with UO-31 renal is over 100 µM; with KM12 colon it was over 100 µM; with U251 CNS it was over 100 µM; in the test with HOP-62 NSCLC it was over 100 µM; in the test on TK-10 renal, 67.3 µM; in the test on SN12C renal it was 41.5 µM. Also, the TGI in the test with SNB-19 CNS and in the test with NCI-H23 lung was over 100 µM each time.

With `CN1CCC[C@@H]1CCO[C@](C)(c1ccccc1)c1ccc(Cl)cc1`, the GI50 with UO-31 renal is 2.83 µM; with KM12 colon, 7.04 µM; in the test with U251 CNS it was 3.83 µM; with HOP-62 NSCLC it was 10.1 µM; in the test on TK-10 renal, 10.7 µM; with SN12C renal, 4.54 µM. Besides, the results for the GI50 in the test on NCI-H522 lung, in the test with SNB-19 CNS and in the test on NCI-H23 lung were 4.63 µM, 8.42 µM and 10.5 µM, respectively. For the same compound, the TGI in the test on UO-31 renal was determined as 16.3 µM; in the test with KM12 colon, 20.2 µM; with U251 CNS, 15.8 µM; in the test with HOP-62 NSCLC it was 23.1 µM; with TK-10 renal, 23.3 µM; with SN12C renal it was 18.7 µM. Further, the values for the TGI in the test on NCI-H522 lung, in the test with SNB-19 CNS and with NCI-H23 lung were 17.1 µM, 22.2 µM and 24.3 µM, respectively.
